Test results as given in ChEMBL document CHEMBL1821607, “N-Arylalkyl-2-azaadamantanes as cage-expanded polycarbocyclic sigma (σ) receptor ligands” (Bioorg Med Chem Lett, 2011).

Columns and labels:
[1] = target: T1, Alpha-1A adrenergic receptor (Homo sapiens) (UniProt P35348); assay: Inhibition of alpha-1A adrenergic receptor at 10 uM by NIMH PDSP
T1 sequence (whole entry): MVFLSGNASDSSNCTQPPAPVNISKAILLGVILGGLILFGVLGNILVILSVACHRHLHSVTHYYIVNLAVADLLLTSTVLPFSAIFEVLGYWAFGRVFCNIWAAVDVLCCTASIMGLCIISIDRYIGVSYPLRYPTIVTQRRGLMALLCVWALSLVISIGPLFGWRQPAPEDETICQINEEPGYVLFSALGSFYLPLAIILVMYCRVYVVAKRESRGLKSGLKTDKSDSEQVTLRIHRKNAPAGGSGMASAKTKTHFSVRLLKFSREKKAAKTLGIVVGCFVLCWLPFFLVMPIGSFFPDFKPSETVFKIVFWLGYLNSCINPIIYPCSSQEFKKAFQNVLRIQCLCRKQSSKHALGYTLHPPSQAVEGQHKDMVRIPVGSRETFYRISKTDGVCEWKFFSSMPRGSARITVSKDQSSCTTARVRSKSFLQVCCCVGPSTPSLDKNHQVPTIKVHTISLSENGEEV

Histamine H1 receptor = Histamine H1 receptor (Homo sapiens, UniProt P35367); assay: Inhibition of H1 receptor by NIMH PDSP
Chain of Histamine H1 receptor (P35367 whole entry): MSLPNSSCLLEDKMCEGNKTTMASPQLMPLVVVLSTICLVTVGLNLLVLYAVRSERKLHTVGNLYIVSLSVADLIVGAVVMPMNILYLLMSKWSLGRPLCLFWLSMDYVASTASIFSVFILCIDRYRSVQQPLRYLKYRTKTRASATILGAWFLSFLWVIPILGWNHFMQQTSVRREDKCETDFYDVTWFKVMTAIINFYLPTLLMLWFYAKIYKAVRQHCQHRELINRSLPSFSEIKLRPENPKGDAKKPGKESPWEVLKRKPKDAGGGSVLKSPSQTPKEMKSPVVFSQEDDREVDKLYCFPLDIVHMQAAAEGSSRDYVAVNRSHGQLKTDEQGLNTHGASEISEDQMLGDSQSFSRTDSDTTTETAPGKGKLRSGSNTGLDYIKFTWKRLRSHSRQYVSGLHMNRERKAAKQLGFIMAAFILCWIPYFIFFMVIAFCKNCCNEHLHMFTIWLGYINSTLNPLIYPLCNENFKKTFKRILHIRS

[2] = target: Histamine H2 receptor (Homo sapiens) (UniProt P25021); assay: Inhibition of H2 receptor at 10 uM by NIMH PDSP
Chain of Histamine H2 receptor (Homo sapiens) (P25021 whole entry): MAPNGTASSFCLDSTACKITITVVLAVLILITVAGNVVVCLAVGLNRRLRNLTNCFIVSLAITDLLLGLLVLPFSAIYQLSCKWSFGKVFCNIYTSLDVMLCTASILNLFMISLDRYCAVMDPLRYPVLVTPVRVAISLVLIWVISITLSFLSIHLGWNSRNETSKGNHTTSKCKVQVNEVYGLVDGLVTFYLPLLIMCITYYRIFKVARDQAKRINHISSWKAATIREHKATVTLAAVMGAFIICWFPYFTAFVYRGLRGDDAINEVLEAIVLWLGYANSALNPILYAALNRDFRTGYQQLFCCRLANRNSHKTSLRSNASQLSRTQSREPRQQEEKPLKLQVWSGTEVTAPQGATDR

D(1A) dopamine receptor = D(1A) dopamine receptor (Homo sapiens, UniProt P21728); assay: Inhibition of D1 dopamine receptor at 10 uM by NIMH PDSP
Chain of D(1A) dopamine receptor (P21728 whole entry): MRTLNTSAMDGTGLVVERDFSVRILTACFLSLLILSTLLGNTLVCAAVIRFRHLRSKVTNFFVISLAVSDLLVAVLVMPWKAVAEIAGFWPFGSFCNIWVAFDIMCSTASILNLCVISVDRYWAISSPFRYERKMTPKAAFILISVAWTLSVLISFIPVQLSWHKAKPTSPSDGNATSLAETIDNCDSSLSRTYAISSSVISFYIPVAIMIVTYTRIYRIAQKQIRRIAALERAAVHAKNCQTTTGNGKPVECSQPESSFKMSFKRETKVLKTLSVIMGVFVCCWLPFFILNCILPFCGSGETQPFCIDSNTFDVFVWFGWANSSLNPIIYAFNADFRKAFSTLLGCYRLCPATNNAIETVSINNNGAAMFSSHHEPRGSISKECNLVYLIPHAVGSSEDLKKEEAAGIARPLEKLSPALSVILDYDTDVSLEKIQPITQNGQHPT

[3] = target: T2, Alpha-2A adrenergic receptor (Homo sapiens) (UniProt P08913); assay: Inhibition of alpha-2A adrenergic receptor at 10 uM by NIMH PDSP
T2 sequence (whole entry): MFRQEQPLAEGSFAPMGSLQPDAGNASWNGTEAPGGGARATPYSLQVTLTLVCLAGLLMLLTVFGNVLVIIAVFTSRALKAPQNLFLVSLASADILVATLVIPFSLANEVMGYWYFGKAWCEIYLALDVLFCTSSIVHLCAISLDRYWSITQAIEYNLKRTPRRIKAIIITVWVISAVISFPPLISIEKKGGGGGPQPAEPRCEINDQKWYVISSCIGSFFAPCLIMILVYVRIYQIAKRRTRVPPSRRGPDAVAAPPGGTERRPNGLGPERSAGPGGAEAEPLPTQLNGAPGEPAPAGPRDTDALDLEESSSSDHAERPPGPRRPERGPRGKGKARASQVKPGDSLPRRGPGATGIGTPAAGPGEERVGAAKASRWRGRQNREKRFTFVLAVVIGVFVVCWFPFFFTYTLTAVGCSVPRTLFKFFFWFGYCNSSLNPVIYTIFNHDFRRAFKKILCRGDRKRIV

[4] = target: Histamine H4 receptor (Homo sapiens) (UniProt Q9H3N8); assay: Inhibition of H4 receptor at 10 uM by NIMH PDSP
Chain of Histamine H4 receptor (Homo sapiens) (Q9H3N8 whole entry): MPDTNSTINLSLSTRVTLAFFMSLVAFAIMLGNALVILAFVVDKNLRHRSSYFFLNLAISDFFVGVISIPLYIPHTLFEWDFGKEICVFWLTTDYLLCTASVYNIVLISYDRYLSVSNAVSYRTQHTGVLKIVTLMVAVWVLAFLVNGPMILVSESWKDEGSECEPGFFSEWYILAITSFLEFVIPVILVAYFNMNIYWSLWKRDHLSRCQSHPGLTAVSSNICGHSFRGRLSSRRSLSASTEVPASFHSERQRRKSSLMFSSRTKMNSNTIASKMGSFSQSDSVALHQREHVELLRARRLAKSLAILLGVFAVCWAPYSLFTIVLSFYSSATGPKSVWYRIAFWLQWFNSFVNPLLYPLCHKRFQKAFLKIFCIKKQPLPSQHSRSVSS

[5] = target: 5-hydroxytryptamine receptor 2B (Homo sapiens) (UniProt P41595); assay: Inhibition of 5-HT2B receptor at 10 uM by NIMH PDSP
Chain of 5-hydroxytryptamine receptor 2B (Homo sapiens) (P41595 whole entry): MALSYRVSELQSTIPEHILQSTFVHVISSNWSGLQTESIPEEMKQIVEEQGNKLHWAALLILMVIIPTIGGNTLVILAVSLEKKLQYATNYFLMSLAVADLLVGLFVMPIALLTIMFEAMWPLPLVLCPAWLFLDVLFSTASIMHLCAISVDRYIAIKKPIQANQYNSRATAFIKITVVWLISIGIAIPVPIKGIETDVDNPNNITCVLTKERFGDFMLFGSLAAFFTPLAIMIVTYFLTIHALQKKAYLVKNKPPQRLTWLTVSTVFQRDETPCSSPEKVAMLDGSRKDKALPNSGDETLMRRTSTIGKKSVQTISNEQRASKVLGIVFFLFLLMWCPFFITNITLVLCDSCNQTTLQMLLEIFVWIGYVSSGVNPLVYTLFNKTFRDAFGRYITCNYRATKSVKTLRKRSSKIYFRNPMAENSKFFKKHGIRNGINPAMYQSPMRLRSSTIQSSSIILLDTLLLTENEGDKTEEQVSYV

[6] = target: T3, Alpha-1D adrenergic receptor (Homo sapiens) (UniProt P25100); assay: Inhibition of alpha-1D adrenergic receptor at 10 uM by NIMH PDSP
T3 sequence (whole entry): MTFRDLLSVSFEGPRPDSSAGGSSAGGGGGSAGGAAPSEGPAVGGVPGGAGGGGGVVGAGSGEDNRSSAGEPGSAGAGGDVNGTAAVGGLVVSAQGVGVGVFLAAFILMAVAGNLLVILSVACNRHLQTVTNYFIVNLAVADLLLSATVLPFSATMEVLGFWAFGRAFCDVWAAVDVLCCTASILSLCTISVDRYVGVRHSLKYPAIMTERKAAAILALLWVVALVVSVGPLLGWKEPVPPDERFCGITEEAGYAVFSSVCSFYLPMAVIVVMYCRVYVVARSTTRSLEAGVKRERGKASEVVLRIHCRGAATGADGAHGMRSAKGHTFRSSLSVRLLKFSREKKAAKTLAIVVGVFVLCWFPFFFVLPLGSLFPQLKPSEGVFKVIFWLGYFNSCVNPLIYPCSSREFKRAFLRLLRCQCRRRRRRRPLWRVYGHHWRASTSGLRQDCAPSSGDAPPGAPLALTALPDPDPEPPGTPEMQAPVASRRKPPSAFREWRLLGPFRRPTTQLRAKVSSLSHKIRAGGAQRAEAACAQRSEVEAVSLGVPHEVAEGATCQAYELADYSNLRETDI

[7] = target: D(2) dopamine receptor (Homo sapiens) (UniProt P14416); assay: Inhibition of D2 dopamine receptor at 10 uM by NIMH PDSP
Chain of D(2) dopamine receptor (Homo sapiens) (P14416 whole entry): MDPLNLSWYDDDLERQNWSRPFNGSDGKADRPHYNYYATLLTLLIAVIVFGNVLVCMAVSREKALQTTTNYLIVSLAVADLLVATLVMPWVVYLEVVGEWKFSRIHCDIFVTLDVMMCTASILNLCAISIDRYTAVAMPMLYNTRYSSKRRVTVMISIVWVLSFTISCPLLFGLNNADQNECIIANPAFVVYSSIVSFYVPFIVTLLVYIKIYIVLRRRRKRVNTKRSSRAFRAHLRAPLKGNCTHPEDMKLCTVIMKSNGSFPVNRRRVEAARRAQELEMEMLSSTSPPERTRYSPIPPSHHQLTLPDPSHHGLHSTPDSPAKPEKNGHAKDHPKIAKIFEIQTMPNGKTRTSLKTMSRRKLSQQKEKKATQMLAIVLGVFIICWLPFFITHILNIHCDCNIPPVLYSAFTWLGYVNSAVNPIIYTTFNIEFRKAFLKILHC

[8] = target: 5-hydroxytryptamine receptor 5A (Homo sapiens) (UniProt P47898); assay: Inhibition of 5-HT5A receptor at 10 uM by NIMH PDSP
Chain of 5-hydroxytryptamine receptor 5A (Homo sapiens) (P47898 whole entry): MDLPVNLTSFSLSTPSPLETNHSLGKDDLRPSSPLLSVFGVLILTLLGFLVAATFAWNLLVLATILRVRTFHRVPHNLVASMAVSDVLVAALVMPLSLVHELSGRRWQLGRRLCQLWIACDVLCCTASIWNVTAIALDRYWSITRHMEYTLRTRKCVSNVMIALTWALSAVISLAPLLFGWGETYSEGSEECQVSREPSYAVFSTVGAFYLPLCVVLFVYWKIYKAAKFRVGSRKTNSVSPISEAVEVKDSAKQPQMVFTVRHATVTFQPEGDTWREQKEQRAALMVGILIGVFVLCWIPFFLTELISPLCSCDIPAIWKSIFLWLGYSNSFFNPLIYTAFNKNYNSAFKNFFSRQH

[9] = target: T4, 5-hydroxytryptamine receptor 1A (Homo sapiens) (UniProt P08908); assay: Inhibition of 5-HT1A receptor at 10 uM by NIMH PDSP
T4 sequence (whole entry): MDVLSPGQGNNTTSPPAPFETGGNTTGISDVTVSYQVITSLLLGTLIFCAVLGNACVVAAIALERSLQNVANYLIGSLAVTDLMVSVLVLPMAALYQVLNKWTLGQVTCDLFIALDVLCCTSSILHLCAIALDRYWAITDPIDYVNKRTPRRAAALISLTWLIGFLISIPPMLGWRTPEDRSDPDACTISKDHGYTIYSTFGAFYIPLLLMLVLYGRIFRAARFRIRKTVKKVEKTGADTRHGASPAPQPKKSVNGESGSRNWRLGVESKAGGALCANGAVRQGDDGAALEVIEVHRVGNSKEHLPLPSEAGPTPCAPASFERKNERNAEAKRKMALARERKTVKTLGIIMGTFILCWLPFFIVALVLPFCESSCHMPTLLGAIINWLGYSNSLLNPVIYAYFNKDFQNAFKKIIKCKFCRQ

[10] = target: 5-hydroxytryptamine receptor 1D (Homo sapiens) (UniProt P28221); assay: Inhibition of 5-HT1D receptor at 10 uM by NIMH PDSP
Chain of 5-hydroxytryptamine receptor 1D (Homo sapiens) (P28221 whole entry): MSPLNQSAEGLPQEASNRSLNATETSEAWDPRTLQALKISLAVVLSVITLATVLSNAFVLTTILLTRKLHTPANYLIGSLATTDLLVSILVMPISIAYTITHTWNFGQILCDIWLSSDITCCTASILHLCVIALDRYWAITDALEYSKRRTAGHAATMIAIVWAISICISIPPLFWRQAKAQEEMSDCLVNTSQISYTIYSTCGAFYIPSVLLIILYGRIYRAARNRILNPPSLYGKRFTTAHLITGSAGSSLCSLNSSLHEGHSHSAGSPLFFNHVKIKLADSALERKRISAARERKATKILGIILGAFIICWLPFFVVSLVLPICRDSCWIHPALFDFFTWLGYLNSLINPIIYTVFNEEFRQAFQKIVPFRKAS

OC12CC3CC(CC(C3)N1Cc1cccc(F)c1)C2 (racemic)
inhibition [1]: < 50% | Ki (Histamine H1 receptor): < 10 µM | inhibition [2]: < 50% | inhibition (D(1A) dopamine receptor): < 50% | inhibition [3]: < 50% | inhibition [4]: < 50% | inhibition [5]: < 50% | inhibition [6]: < 50% | inhibition [7]: < 50% | inhibition [8]: < 50% | inhibition [9]: < 50% | inhibition [10]: < 50%

OC12CC3CC(CC(C3)N1Cc1ccccc1)C2 (racemic)
inhibition [1]: < 50% | Ki (Histamine H1 receptor): < 10 µM | inhibition [2]: < 50% | inhibition (D(1A) dopamine receptor): < 50% | inhibition [4]: < 50% | inhibition [5]: < 50% | inhibition [6]: < 50% | inhibition [7]: < 50% | inhibition [8]: < 50% | inhibition [9]: < 50% | inhibition [10]: < 50%

Fc1cccc(CN2C3CC4CC(C3)CC2C4)c1
Ki (Histamine H1 receptor): < 10 µM | inhibition [2]: < 50% | inhibition [3]: < 50% | inhibition [4]: < 50% | inhibition [5]: < 50% | inhibition [6]: < 50% | inhibition [7]: < 50% | inhibition [8]: < 50% | inhibition [9]: < 50% | inhibition [10]: < 50%

c1ccc(CN2C3CC4CC(C3)CC2C4)cc1
inhibition [1]: < 50% | Ki (Histamine H1 receptor): < 10 µM | inhibition [2]: < 50% | inhibition (D(1A) dopamine receptor): < 50% | inhibition [3]: < 50% | inhibition [4]: < 50% | inhibition [5]: < 50% | inhibition [6]: < 50% | inhibition [7]: < 50% | inhibition [8]: < 50% | inhibition [9]: < 50% | inhibition [10]: < 50%
